≈ marks a conversion by molar mass, not a printed value.
assay: physchem; details: HBSS buffer, pH 6.5

SMILES | solubility
CCOC(=O)c1cc(C#N)c(N2CCN(C(=O)Nc3ccccc3)CC2)nc1C(F)(F)F | < 0.1 µM
CCOC(=O)c1cnc(N2CCN(C(=O)Nc3ccccc3)CC2)c(C#N)c1 | 90 µM (≈ 34.1 µg/mL)
CCOC(=O)c1cnc(N2CCN(C(=O)Nc3ccccc3)CC2)c(Cl)c1 | 40 µM (≈ 15.6 µg/mL)
CCOC(=O)C1=C(C)NC(C)=C(C(=O)OC)C1c1cccc(Cl)c1Cl (stereo not given) [FELODIPINE] | 1 µM (≈ 0.384 µg/mL)
C[C@]12CC[C@H]3[C@@H](CCC4=CC(=O)CC[C@@]43C)[C@@H]1CC[C@@H]2O [TESTOSTERONE] | 75 µM (≈ 21.6 µg/mL)
